Measured values from US20240246956A1, “CLASS IIA HISTONE DEACETYLASE (HDAC) DEGRADER LIGANDS AND METHODS OF USE THEREOF” (DANA-FARBER CANCER INSTITUTE, INC., priority 2021, published 2024).

Experiments:
HDAC7 [1] = target: T1, HDAC7 (Homo sapiens, UniProt Q8WUI4); assay: In vitro HDAC enzymatic assay (Reaction Biology); assay type: biochemical; parameters: purchased Reaction Biology (Devault, PA); conditions: dose response, FIG. 2A-2B
T1 sequence (Q8WUI4 1-952): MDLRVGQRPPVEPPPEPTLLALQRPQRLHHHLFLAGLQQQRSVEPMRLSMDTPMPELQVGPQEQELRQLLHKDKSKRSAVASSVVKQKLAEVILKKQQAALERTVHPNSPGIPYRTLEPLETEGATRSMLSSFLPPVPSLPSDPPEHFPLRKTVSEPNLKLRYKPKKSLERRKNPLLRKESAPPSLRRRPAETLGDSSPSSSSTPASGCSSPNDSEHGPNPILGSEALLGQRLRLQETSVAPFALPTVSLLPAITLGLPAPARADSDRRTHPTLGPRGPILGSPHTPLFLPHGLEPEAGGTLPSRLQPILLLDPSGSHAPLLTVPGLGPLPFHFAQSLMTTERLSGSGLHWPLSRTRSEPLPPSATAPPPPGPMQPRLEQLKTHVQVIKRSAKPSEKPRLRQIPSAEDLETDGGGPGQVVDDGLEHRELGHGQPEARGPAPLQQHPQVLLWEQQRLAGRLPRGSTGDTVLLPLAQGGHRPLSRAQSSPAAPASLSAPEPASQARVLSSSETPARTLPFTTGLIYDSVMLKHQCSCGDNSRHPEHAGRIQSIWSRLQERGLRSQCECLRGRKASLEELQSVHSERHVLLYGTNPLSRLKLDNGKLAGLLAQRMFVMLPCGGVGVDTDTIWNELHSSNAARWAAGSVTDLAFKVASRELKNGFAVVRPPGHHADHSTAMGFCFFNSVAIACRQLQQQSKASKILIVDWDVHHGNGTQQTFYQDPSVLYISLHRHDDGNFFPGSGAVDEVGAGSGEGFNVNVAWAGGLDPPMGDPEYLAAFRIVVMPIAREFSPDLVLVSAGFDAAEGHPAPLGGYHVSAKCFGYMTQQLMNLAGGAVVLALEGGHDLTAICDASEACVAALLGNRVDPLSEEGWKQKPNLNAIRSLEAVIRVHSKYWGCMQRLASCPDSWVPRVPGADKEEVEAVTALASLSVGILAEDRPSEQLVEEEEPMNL
Protocol: (§1) The in vitro HDAC enzymatic assays were performed by Reaction Biology (Devault, PA).

HDAC7 [2] = target: T1, HDAC7; assay: Global quantitative proteomics, change in protein abundance in Kelly cells; assay type: cell-based; parameters: endogenous in cells; host or cells: Kelly cells; conditions: 1 μM, 5-hour treatment, vs DMSO, FIG. 3
Protocol: Cells were washed once with phosphate-buffered saline (PBS), harvested with CellstripperTM (Corning®), washed two additional times with PBS and snap frozen in liquid nitrogen. […] Proteins were precipitated using methanol/chloroform in Donovan et al., Elife 7:e38430 (2018). The precipitated protein was resuspended in 4 M Urea, 50 mM HEPES pH 7.4, followed by dilution to 1 M urea with the addition of 200 mM EPPS, pH 8. Proteins were first digested with LysC (1:50: enzyme:protein) for 12 hours at room temperature. The LysC digestion was diluted to 0.5 M Urea with 200 mM EPPS pH 8 followed by digestion with trypsin (1:50: enzyme:protein) for 6 hours at 37° C. Tandem mass tag (TMT) reagents (Thermo Fisher Scientific) were dissolved in anhydrous acetonitrile (ACN) according to manufacturer's instructions. Anhydrous ACN was added to each peptide sample to a final concentration of 30% v/v, and labeling was induced with the addition of TMT reagent to each sample at a ratio of 1:4 peptide:TMT label. The 11-plex labeling reactions were performed for 1.5 hours at room temperature and the reaction quenched by the addition of hydroxylamine to a final concentration of 0.3% for 15 minutes at room temperature. The sample channels were combined at a 1:1 ratio, desalted using C18 solid phase extraction cartridges (Waters®) and analyzed by LC-MS for channel ratio comparison. Samples were then combined using the adjusted volumes determined in the channel ratio analysis and dried down in a speed vacuum. The combined sample was then resuspended in 1% formic acid, and acidified (pH 2-3) before being subjected to desalting with C18 SPE (Sep-Pak®-, Waters®). […] The 96 resulting fractions were then pooled in a non-contiguous manner into 24 fractions and these fractions were used for subsequent mass spectrometry analysis. Data were collected using an Orbitrap FusionTM LumosTM mass spectrometer (Thermo Fisher Scientific, San Jose, CA, USA) coupled with a […] pump (Thermo Fisher Scientific). Peptides were separated on an EasySprayTM ES803.rev2 75 μm inner diameter microcapillary column (ThermoFisher Scientific). Peptides were separated using a 190 min gradient of 6-27% acetonitrile in 1.0% formic acid with a flow rate of 300 nL/min. Each analysis used an MS3-based TMT method as described in McAlister et al., Anal. Chem. 86(14):7150-7158 (2014). The data were acquired using a mass range of m/z 340-1350, resolution 120,000, automatic gain control (AGC) target 1×10^6, maximum injection time 100 ms, dynamic exclusion of 120 seconds for the peptide measurements in the Orbitrap FusionTM LumosTM mass spectrometer. Data dependent MS2 spectra were acquired in the ion trap with a normalized collision energy (NCE) set at 55%, AGC target set to 1.5×10^5 and a maximum injection time of 150 ms. MS3 scans were acquired in the Orbitrap FusionTM LumosTM mass spectrometer with a higher energy collision dissociation (HCD) set to 55%, AGC target set to 1.5×10^5, maximum injection time of 150 ms, resolution at 50,000 and with a maximum synchronous precursor selection (SPS) precursors set to 10. Proteome Discoverer 2.2 (Thermo Fisher Scientific) was used for .RAW file processing and controlling peptide and protein level false discovery rates, assembling proteins from peptides, and protein quantification from peptides. MS/MS spectra were searched against a Swissprot human database (December 2016) with both the forward and reverse sequences. […] TMT reporter ion intensities were measured using a 0.003 Da window around the theoretical m/z for each reporter ion in the MS3 scan. […] Reporter ion intensities were normalized and scaled using in-house scripts in the R framework. Statistical analysis was carried out using the limma package within the R framework as described in Ritchie et al., Nucleic Acids Res. 43(7):e47 (2015).

HDAC4 = HDAC4 (Homo sapiens, UniProt P56524); assay: In vitro HDAC enzymatic assay (Reaction Biology); assay type: biochemical; parameters: purchased Reaction Biology (Devault, PA); conditions: dose response, FIG. 2A-2B
HDAC4, sequence (P56524 whole entry): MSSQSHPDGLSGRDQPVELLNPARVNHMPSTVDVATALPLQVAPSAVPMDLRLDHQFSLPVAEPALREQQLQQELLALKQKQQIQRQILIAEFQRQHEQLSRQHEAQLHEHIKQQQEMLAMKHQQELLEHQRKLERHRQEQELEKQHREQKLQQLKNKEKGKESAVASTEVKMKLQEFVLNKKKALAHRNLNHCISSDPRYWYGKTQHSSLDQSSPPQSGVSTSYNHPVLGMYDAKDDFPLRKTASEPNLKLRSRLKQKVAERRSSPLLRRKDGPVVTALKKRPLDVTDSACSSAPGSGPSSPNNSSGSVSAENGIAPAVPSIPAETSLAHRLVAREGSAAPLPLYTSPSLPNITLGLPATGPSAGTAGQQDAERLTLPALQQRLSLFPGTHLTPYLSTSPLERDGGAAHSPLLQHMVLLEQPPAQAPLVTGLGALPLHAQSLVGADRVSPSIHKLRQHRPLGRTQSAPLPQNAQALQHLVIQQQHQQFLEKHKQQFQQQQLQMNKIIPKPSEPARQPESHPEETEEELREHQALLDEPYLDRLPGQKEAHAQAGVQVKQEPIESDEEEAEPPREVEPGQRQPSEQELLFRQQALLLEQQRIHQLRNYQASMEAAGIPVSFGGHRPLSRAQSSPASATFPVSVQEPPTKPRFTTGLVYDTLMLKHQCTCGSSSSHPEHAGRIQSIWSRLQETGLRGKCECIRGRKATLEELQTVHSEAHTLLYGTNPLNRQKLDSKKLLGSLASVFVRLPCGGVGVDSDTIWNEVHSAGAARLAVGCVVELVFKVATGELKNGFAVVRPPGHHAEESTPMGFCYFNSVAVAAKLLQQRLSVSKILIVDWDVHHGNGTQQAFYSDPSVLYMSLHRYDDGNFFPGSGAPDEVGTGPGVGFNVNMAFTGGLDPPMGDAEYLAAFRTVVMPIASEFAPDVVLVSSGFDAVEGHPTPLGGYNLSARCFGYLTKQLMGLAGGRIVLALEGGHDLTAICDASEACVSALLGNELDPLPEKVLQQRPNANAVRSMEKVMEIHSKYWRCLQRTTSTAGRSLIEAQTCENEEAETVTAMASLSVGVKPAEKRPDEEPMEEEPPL
Protocol: as §1

HDAC5 = HDAC5 (Homo sapiens, UniProt Q9UQL6); assay: In vitro HDAC enzymatic assay (Reaction Biology); assay type: biochemical; parameters: purchased Reaction Biology (Devault, PA); conditions: dose response, FIG. 2A-2B
HDAC5, sequence (Q9UQL6 whole entry): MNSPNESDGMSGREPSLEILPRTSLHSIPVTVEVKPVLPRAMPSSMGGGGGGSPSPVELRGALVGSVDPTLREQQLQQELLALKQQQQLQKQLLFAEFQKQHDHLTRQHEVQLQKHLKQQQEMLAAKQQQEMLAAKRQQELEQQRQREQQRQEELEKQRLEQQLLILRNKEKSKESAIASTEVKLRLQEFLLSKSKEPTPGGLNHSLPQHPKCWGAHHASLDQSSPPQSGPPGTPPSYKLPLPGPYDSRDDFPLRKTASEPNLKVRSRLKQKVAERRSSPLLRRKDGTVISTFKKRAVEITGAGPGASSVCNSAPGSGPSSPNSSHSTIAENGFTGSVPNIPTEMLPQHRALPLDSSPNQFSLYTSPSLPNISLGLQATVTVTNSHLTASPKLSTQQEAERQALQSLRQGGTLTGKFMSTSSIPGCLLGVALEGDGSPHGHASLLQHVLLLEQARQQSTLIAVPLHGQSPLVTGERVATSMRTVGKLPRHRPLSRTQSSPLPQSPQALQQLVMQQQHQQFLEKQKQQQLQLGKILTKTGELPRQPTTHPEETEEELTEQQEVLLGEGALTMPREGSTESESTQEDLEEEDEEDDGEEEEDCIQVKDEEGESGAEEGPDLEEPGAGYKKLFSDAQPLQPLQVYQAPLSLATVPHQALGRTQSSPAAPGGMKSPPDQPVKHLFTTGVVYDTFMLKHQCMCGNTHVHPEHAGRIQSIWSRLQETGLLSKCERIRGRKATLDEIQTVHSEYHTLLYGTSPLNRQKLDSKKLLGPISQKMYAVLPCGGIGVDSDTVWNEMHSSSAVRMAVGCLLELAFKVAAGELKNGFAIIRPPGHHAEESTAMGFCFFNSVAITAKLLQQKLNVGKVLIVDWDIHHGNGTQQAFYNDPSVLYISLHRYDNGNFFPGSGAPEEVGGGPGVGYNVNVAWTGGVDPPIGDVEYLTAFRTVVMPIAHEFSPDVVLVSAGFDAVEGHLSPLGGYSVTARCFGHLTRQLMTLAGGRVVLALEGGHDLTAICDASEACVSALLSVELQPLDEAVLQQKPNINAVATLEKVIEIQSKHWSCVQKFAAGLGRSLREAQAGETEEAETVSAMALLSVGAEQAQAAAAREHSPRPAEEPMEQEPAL
Protocol: as §1

Structure (SMILES)	inhibition of HDAC7 (HDAC7 [1])	protein expression level of HDAC7 (HDAC7 [2])	inhibition of HDAC4 (HDAC4)	inhibition of HDAC5 (HDAC5)
O=C1CCC(N2C(=O)c3cccc(NCCCCCCN4CCC(CNC(=O)c5cccc(-c6noc(C(F)(F)F)n6)c5)(c5nc(-c6ccccc6)cs5)CC4)c3C2=O)C(=O)N1 (centres unmarked) [Compound 1]	inhibited	selective reduction in protein expression level	inhibited	inhibited
CCN(CCNc1cccc2c1C(=O)N(C1CCC(=O)NC1=O)C2=O)C[C@@H](C)NC(=O)c1ccc(-c2noc(C(F)(F)F)n2)cc1 (stereo partly drawn) [Compound 16, N-((2R)-1-((2-((2-(2,6-dioxopiperidin-3-yl)-1,3-dioxoisoindolin-4-yl)amino)ethyl)(ethyl)amino)propan-2-yl)-4-(5-(trifluoromethyl)-1,2,4-oxadiazol-3-yl)benzamide]	inhibited	reduction in protein expression level	inhibited	inhibited
